Here are results for one molecule from patent publication US5316773A, “Particulate preparation containing a flourracil derivative and hydroxypropylmethyl-cellulose” (Otsuka Pharmaceutical Co., Ltd., priority 1990, dated 1994).

The nature of data set [1]: Absorption test using beagle (oral administration, EM-FU concentration in plasma). In kind it is in vivo. Particulars: preparations corresponding to 100 mg BOF-A2 per beagle, all cases.
For data set [2] the following is noted: after administration in vivo; via conversion into EM-FU and CNDP; cited from earlier work.

Turning to `CCOCn1cc(F)c(=O)n(C(=O)c2cccc(C(=O)Oc3nc(OC(=O)c4ccccc4)ccc3C#N)c2)c1=O` [BOF-A2, 3-[3-(6-Benzoyloxy-3-cyano-2-pyridyloxycarbonyl)benzoyl]-1-ethoxymethyl-5-fluorouracil], the “non-changed compound (BOF-A2) in plasma” value in data set [1] is “not detected”. Besides, in data set [2], the anti-cancer activity entry is “continuous and strong anti-cancer activity”.
